Laboratory results published in patent US20210269661A1, “INK COMPOSITIONS” (HEWLETT-PACKARD DEVELOPMENT COMPANY, L.P., priority 2018, published 2021).
Read-outs that look alike come from different tables or passages of the source.

Assay: Partition coefficient of organic co-solvents (log P 1-octanol/water)
Text: The hydrophilicity of the organic co-solvent can be quantified as a partition coefficient. As used herein, “partition coefficient” refers to a concentration ratio of a compound in an equilibrium mixture of two immiscible phases, and can be a measure of the difference in solubility of the compound in the two immiscible phases. Formula I provides an equation of quantifying the hydrophilicity of the organic co-solvents of the present disclosure, as follows: […]

[1] = equilibrium mixture of 1-octanol and water

Partition Coefficient (log P1-octanol/water)	Structure (SMILES)	Partition Coefficient (log P1-octanol/water) [1] [log P1-octanol/water]
2.34	CCCCCCCCO [Ink 1-octanol, 1-octanol]	
	O=C1CCCN1 [2-pyrrolidone]	−0.10
	CCC(CO)(CO)CO [ethylhydroxy propanediol]	−0.50
−1.39	CC1(C)C(=O)N(CCO)C(=O)N1CCO [di-(2-hydroxyethy)-5,5-dimethylhydantoin]	
−0.40	O=C1CCCN1CCO [N-(2-hydroxyethyl)-2-pyrrolidinone]	
−1.00	OCCOCCOCCO [triethylene glycol]	
−0.40	CC1(C)NC(=O)NC1=O [5,5-dimethyl hydantoin]	

Structure (SMILES)	Partition Coefficient (log P1-octanol/water)	Partition Coefficient (log P1-octanol/water) [1] [log P1-octanol/water]
O [water]	−0.825	
